Experimental data taken from patent US20260355165A1, “2,3,4,9-TETRAHYDRO-1H-PYRIDO[3,4-B]INDOLE DERIVATIVES AS ESTROGEN RECEPTOR MODULATORS FOR THE TREATMENT OF CANCER” (Olema Pharmaceuticals, Inc., priority 2022, published 2026).

Target: T1, estrogen receptor (Homo sapiens, UniProt P03372)
T1 construct: endogenous in cells; host or cells: ECC-1 cells
T1 sequence (P03372 1-595): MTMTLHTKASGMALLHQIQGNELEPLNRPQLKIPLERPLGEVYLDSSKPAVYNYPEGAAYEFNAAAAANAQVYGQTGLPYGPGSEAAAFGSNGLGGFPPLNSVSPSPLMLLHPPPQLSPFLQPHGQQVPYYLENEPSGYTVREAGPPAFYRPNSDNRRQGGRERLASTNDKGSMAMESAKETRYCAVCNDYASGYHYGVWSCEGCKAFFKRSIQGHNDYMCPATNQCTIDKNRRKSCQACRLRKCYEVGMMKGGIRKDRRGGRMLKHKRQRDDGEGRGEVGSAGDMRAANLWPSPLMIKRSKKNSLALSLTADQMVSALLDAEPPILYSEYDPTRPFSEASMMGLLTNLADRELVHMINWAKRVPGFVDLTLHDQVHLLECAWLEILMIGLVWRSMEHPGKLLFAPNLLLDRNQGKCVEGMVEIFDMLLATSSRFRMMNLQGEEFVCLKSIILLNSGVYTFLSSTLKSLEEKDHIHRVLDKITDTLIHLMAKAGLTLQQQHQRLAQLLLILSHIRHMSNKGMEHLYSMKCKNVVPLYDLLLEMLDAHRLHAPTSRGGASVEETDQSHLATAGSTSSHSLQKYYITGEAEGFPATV
Test: AP assay (alkaline phosphatase activity in ECC-1 cells), agonist mode (absence of E2) and antagonist mode (presence of 500 pM E2)
Assay type: cell-based
Settings: 3 days, AP activity normalized to 500 pM E2 alone, agonist and antagonist mode combined
Experimental: ECC-1 cells were trypsinized and resuspended in hormone-depleted media and plated at a density of 15 k cells per well into a 96-well plate for at least 4 hours. Cells were treated with test compounds in the absence of E2 (for agonist mode) or in the presence of 500 pM E2 (for antagonist mode) for 3 days and plates were subsequently frozen at −80 °C. Thawed plates were incubated with a chromogenic substrate of AP, p-nitrophenyl phosphate (Thermo Fisher Scientific), for 40 minutes at 42 °C, and absorbances were read at 405 nm. AP activity was normalized to the activity of 500 pM E2 alone.
The compound numbers correspond to the compound numbers of Table 1 and 2. Compounds having an activity designated as “+” provided estrogen receptor agonism having (i) at least 80% increase in the E2-normalized signal in the AP assay (agonist mode) and (ii) no more than 80% reduction in the E2-normalized signal in the AP assay (antagonist mode). Compounds having an activity designated as “++” provided estrogen receptor antagonism having (i) between 10% and 80% increase in the E2-normalized signal in the AP assay (agonist mode) and (ii) between 10% and 80% reduction in the E2-normalized signal in the AP assay (antagonist mode).

SMILES | Activity (estrogen receptor modulation, e.g., agonism and antagonism)
C[C@@H]1Cc2c([nH]c3ccccc23)[C@@H](c2ccc3[nH]c(CN4CC(CF)C4)cc3c2)N1CC(F)(F)CO [Compound I-45, 2,2-difluoro-3-[(1R,3R)-1-[2-[[3-(fluoromethyl)azetidin-1-yl]methyl]-1H-indol-5-yl]-3-methyl-1,3,4,9-tetrahydropyrido[3,4-b]indol-2-yl]propan-1-ol] | +++ (estrogen receptor antagonism (i) with pIC50 greater than 7.5 and at least a 10% reduction in the E2-normalized signal in the AP assay (antagonist mode); and (ii) no more than 10% increase in E2-normalized signal in the AP assay (agonist mode))
C[C@@H]1Cc2c([nH]c3ccccc23)[C@@H](c2ccc3[nH]c(CN4CC(CF)C4)cc3c2)N1CC(C)(C)F [Compound I-40, (1R,3R)-1-[2-[[3-(fluoromethyl)azetidin-1-yl]methyl]-1H-indol-5-yl]-2-(2-fluoro-2-methyl-propyl)-3-methyl-1,3,4,9-tetrahydropyrido[3,4-b]indole] | +++ (estrogen receptor antagonism (i) with pIC50 greater than 7.5 and at least a 10% reduction in the E2-normalized signal in the AP assay (antagonist mode); and (ii) no more than 10% increase in E2-normalized signal in the AP assay (agonist mode))
CC[C@H]1CCN(Cc2cc3sc([C@@H]4c5[nH]c6ccccc6c5C[C@@H](C)N4CC(C)(C)F)cc3[nH]2)C1 [Compound I-68, 5-[[(3S)-3-ethylpyrrolidin-1-yl]methyl]-2-[(1S,3R)-2-(2-fluoro-2-methyl-propyl)-3-methyl-1,3,4,9-tetrahydropyrido[3,4-b]indol-1-yl]-4H-thieno[3,2-b]pyrrole] | + (estrogen receptor agonism having (i) at least 80% increase in the E2-normalized signal in the AP assay (agonist mode) and (ii) no more than 80% reduction in the E2-normalized signal in the AP assay (antagonist mode))
C[C@@H]1Cc2c([nH]c3ccccc23)[C@@H](c2ccc3[nH]c(CN4CC(CF)C4)cc3n2)N1CC(C)(C)F [Compound I-70, (1S,3R)-1-[2-[[3-(fluoromethyl)azetidin-1-yl]methyl]-1H-pyrrolo[3,2-b]pyridin-5-yl]-2-(2-fluoro-2-methyl-propyl)-3-methyl-1,3,4,9-tetrahydropyrido[3,4-b]indole] | + (estrogen receptor agonism having (i) at least 80% increase in the E2-normalized signal in the AP assay (agonist mode) and (ii) no more than 80% reduction in the E2-normalized signal in the AP assay (antagonist mode))
C[C@@H]1Cc2c([nH]c3ccccc23)[C@@H](c2n[nH]c3cc(CN4CCC45CC(F)(F)C5)ccc23)N1CC(C)(C)F [Compound I-34, (1S,3R)-1-[6-[(6,6-difluoro-1-azaspiro[3.3]heptan-1-yl)methyl]-1H-indazol-3-yl]-2-(2-fluoro-2-methyl-propyl)-3-methyl-1,3,4,9-tetrahydropyrido[3,4-b]indole] | + (estrogen receptor agonism having (i) at least 80% increase in the E2-normalized signal in the AP assay (agonist mode) and (ii) no more than 80% reduction in the E2-normalized signal in the AP assay (antagonist mode))
C[C@@H]1Cc2c([nH]c3ccccc23)[C@@H](c2n[nH]c3cc(CNCCCF)ccc23)N1CC(C)(C)F [Compound I-14, 3-fluoro-N-[[3-[(1S,3R)-2-(2-fluoro-2-methyl-propyl)-3-methyl-1,3,4,9-tetrahydropyrido[3,4-b]indol-1-yl]-1H-indazol-6-yl]methyl]propan-1-amine] | + (estrogen receptor agonism having (i) at least 80% increase in the E2-normalized signal in the AP assay (agonist mode) and (ii) no more than 80% reduction in the E2-normalized signal in the AP assay (antagonist mode))
C[C@@H]1Cc2c([nH]c3ccccc23)[C@@H](c2cc3[nH]c(C(=O)O)cc3s2)N1CC(C)(C)F.N [Compound I-65, ammonium; 2-[(1S,3R)-2-(2-fluoro-2-methyl-propyl)-3-methyl-1,3,4,9-tetrahydropyrido[3,4-b]indol-1-yl]-4H-thieno[3,2-b]pyrrole-5-carboxylate] | ++ (estrogen receptor antagonism having (i) between 10% and 80% increase in the E2-normalized signal in the AP assay (agonist mode) and (ii) between 10% and 80% reduction in the E2-normalized signal in the AP assay (antagonist mode))
C[C@@H]1Cc2c([nH]c3ccccc23)[C@@H](c2n[nH]c3cc(CN4CC5(CC(F)C5)C4)ccc23)N1CC(C)(C)F [Compound I-33, (1S,3R)-1-[6-[(6-fluoro-2-azaspiro[3.3]heptan-2-yl)methyl]-1H-indazol-3-yl]-2-(2-fluoro-2-methyl-propyl)-3-methyl-1,3,4,9-tetrahydropyrido[3,4-b]indole] | +++ (estrogen receptor antagonism (i) with pIC50 greater than 7.5 and at least a 10% reduction in the E2-normalized signal in the AP assay (antagonist mode); and (ii) no more than 10% increase in E2-normalized signal in the AP assay (agonist mode))
C[C@@H]1Cc2c([nH]c3ccccc23)[C@@H](c2ccc3sc(CN4CC(CF)C4)nc3c2)N1CC(C)(C)F [Compound I-103, 2-[[3-(fluoromethyl)azetidin-1-yl]methyl]-5-[(1R,3R)-2-(2-fluoro-2-methyl-propyl)-3-methyl-1,3,4,9-tetrahydropyrido[3,4-b]indol-1-yl]-1,3-benzothiazole] | + (estrogen receptor agonism having (i) at least 80% increase in the E2-normalized signal in the AP assay (agonist mode) and (ii) no more than 80% reduction in the E2-normalized signal in the AP assay (antagonist mode))
CC1CN(Cc2cc3cc([C@@H]4c5[nH]c6ccccc6c5C[C@@H](C)N4CC(C)(C)F)sc3[nH]2)C1 [Compound I-62, 2-[(1S,3R)-2-(2-fluoro-2-methyl-propyl)-3-methyl-1,3,4,9-tetrahydropyrido[3,4-b]indol-1-yl]-5-[(3-methylazetidin-1-yl)methyl]-6H-thieno[2,3-b]pyrrole] | ++ (estrogen receptor antagonism having (i) between 10% and 80% increase in the E2-normalized signal in the AP assay (agonist mode) and (ii) between 10% and 80% reduction in the E2-normalized signal in the AP assay (antagonist mode))
C[C@@H]1Cc2c([nH]c3ccccc23)[C@@H](c2ccc3oc(CN4CCC45CC(F)(F)C5)cc3c2)N1CC(C)(C)F [Compound I-58, (1R,3R)-1-[2-[(6,6-difluoro-1-azaspiro[3.3]heptan-1-yl)methyl]benzofuran-5-yl]-2-(2-fluoro-2-methyl-propyl)-3-methyl-1,3,4,9-tetrahydropyrido[3,4-b]indole] | + (estrogen receptor agonism having (i) at least 80% increase in the E2-normalized signal in the AP assay (agonist mode) and (ii) no more than 80% reduction in the E2-normalized signal in the AP assay (antagonist mode))
CC1CN(Cc2ccc3c([C@@H]4c5[nH]c6ccccc6c5C[C@@H](C)N4CC(C)(C)F)n[nH]c3c2)C1 [Compound I-11, (1S,3R)-2-(2-fluoro-2-methyl-propyl)-3-methyl-1-[6-[(3-methylazetidin-1-yl)methyl]-1H-indazol-3-yl]-1,3,4,9-tetrahydropyrido[3,4-b]indole] | ++ (estrogen receptor antagonism having (i) between 10% and 80% increase in the E2-normalized signal in the AP assay (agonist mode) and (ii) between 10% and 80% reduction in the E2-normalized signal in the AP assay (antagonist mode))
C[C@@H]1Cc2c([nH]c3ccccc23)[C@@H](c2n[nH]c3cc(CN4CC(CF)C4)ccc23)N1CC(F)(F)CO [Compound I-16, 2,2-difluoro-3-[(1S,3R)-1-[6-[[3-(fluoromethyl)azetidin-1-yl]methyl]-1H-indazol-3-yl]-3-methyl-1,3,4,9-tetrahydropyrido[3,4-b]indol-2-yl]propan-1-ol] | ++ (estrogen receptor antagonism having (i) between 10% and 80% increase in the E2-normalized signal in the AP assay (agonist mode) and (ii) between 10% and 80% reduction in the E2-normalized signal in the AP assay (antagonist mode))

Same assay, conditions: AP assay, antagonist mode, 500 pM E2, 3 days

IC50 | SMILES
< 398 nM | C[C@@H]1Cc2c([nH]c3ccccc23)[C@@H](c2ccc3[nH]c(CN4CC(CF)C4)cc3c2)N1CC(F)(F)C(F)(F)F [Compound I-110, (1R,3R)-1-[2-[[3-(fluoromethyl)azetidin-1-yl]methyl]-1H-indol-5-yl]-3-methyl-2-(2,2,3,3,3-pentafluoropropyl)-1,3,4,9-tetrahydropyrido[3,4-b]indole]

Same assay, conditions: agonist mode, absence of E2, 3 days

increase in E2-normalized signal in the AP assay (agonist mode) | SMILES
no more than 10% | C[C@@H]1Cc2c([nH]c3ccccc23)[C@@H](c2ccc3[nH]c(CN4CC(CF)C4)cc3c2)N1CC(F)(F)C(F)(F)F [Compound I-110, (1R,3R)-1-[2-[[3-(fluoromethyl)azetidin-1-yl]methyl]-1H-indol-5-yl]-3-methyl-2-(2,2,3,3,3-pentafluoropropyl)-1,3,4,9-tetrahydropyrido[3,4-b]indole]

Same assay, conditions: antagonist mode, 500 pM E2, 3 days

reduction in the E2-normalized signal in the AP assay (antagonist mode) | SMILES
≥ 10% | C[C@@H]1Cc2c([nH]c3ccccc23)[C@@H](c2ccc3[nH]c(CN4CC(CF)C4)cc3c2)N1CC(F)(F)C(F)(F)F [Compound I-110, (1R,3R)-1-[2-[[3-(fluoromethyl)azetidin-1-yl]methyl]-1H-indol-5-yl]-3-methyl-2-(2,2,3,3,3-pentafluoropropyl)-1,3,4,9-tetrahydropyrido[3,4-b]indole]
